The values below come from ChEMBL document CHEMBL5370629, “Probing the Interactions of Thiazole Abietane Inhibitors with the Human Serine Hydrolases ABHD16A and ABHD12” (ACS Med Chem Lett, 2023).

The target in data set [1] is T1, Phosphatidylserine lipase ABHD16A (Mus musculus) (UniProt Q9Z1Q2).
T1 sequence (whole entry): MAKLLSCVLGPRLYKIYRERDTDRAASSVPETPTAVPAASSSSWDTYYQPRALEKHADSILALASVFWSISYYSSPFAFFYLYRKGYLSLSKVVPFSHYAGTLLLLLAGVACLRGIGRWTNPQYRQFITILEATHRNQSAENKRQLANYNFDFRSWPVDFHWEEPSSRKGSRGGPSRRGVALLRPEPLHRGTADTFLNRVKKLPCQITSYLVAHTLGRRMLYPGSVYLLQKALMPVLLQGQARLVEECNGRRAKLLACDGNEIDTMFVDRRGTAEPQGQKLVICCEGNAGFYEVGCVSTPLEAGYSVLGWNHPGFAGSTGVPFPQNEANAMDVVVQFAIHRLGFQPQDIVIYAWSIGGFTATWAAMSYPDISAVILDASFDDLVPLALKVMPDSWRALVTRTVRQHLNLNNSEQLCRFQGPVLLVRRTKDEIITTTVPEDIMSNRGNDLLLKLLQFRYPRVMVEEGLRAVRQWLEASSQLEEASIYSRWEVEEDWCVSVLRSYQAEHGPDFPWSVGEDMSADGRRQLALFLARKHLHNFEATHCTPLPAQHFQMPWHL
The data set is described as follows: Inhibition of azido-fluorophosphonate probe binding to mouse ABHD16A expressed in HEK293T cells at 200 uM incubated for 1 hr followed by azido-fluorophosphonate addition and measured after 1 hr by fluorescent Western blotting analysis relative to control. The format is cell-based. Conditions: time 2.0 hrs; call rule not given here. Background: Immunoblotting shows a protein as a band on a membrane.

Data set [2] deals with T2, Phosphatidylserine lipase ABHD16A (Homo sapiens) (UniProt O95870).
T2 sequence (whole entry): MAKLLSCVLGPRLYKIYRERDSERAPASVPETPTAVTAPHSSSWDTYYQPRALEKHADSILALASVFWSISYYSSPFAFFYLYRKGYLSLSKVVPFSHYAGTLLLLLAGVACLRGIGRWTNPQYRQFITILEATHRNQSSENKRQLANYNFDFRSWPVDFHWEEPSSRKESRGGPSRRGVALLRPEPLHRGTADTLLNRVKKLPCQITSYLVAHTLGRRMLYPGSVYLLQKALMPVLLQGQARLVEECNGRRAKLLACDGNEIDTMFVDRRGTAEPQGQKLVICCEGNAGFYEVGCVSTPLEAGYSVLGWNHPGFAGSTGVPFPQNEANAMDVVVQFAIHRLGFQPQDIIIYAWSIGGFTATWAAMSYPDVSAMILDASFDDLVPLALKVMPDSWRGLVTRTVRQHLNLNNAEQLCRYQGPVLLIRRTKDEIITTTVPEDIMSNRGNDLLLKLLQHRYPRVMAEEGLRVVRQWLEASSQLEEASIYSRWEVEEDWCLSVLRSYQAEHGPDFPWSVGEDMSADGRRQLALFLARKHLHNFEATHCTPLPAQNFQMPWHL
The data set is described as follows: Inhibition of azido-fluorophosphonate probe binding to human ABHD16A expressed in HEK293T cells at 100 uM incubated for 1 hr followed by azido-fluorophosphonate addition and measured after 1 hr by fluorescent Western blotting analysis relative to control. The format is cell-based. Conditions: time 2.0 hrs.

For data set [3], the target named is T2, Phosphatidylserine lipase ABHD16A (Homo sapiens). Put plainly: Inhibition of azido-fluorophosphonate probe binding to human ABHD16A expressed in HEK293T cells at 20 uM incubated for 1 hr followed by azido-fluorophosphonate addition and measured after 1 hr by fluorescent Western blotting analysis relative to control. Type of data set: cell-based. Conditions: time 2.0 hrs.

Data set [4] deals with T3, ABHD12 (lysophosphatidylserine lipase) (Homo sapiens, UniProt Q8N2K0).
T3 sequence (Q8N2K0 whole entry): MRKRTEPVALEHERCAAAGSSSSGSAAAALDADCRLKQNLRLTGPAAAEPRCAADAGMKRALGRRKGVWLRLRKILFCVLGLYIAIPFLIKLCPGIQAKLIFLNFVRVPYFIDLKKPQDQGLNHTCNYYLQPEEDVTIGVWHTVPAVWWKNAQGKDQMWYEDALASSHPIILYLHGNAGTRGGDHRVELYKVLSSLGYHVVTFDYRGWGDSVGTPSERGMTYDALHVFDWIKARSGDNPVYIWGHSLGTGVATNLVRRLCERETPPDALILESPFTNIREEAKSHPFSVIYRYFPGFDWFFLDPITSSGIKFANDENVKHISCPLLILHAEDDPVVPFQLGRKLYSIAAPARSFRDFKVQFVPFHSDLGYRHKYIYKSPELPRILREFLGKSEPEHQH
Put plainly: Inhibition of azido-fluorophosphonate probe binding to human ABHD12 expressed in HEK293T cells at 100 uM incubated for 1 hr followed by azido-fluorophosphonate addition and measured after 1 hr by fluorescent Western blotting analysis relative to control. The format is toxicity, cell-based. Conditions: HEK293T cells that express human ABHD12, probe azido-fluorophosphonate.

Data set [5] has as its target T3, ABHD12 (lysophosphatidylserine lipase). Put plainly: Inhibition of azido-fluorophosphonate probe binding to human ABHD12 expressed in HEK293T cells at 20 uM incubated for 1 hr followed by azido-fluorophosphonate addition and measured after 1 hr by fluorescent Western blotting analysis relative to control. Conditions: HEK293T cells that express human ABHD12, probe azido-fluorophosphonate. The format is toxicity, cell-based.

Data set [6] concerns the target T1, Phosphatidylserine lipase ABHD16A (Mus musculus). Put plainly: Inhibition of azido-fluorophosphonate probe binding to mouse ABHD16A expressed in HEK293T cells at 20 uM incubated for 1 hr followed by azido-fluorophosphonate addition and measured after 1 hr by fluorescent Western blotting analysis relative to control. Type of data set: cell-based. Conditions: time 2.0 hrs.

The target is the same in data set [7]. Put plainly: Inhibition of azido-fluorophosphonate probe binding to mouse ABHD16A expressed in HEK293T cells at 20 to 100 uM incubated for 1 hr followed by azido-fluorophosphonate addition and measured after 1 hr by fluorescent Western blotting analysis relative to control. Type of data set: cell-based. Conditions: dose 20-100 µM, time 2.0 hrs.
Data set [8] addresses T4, Lysophosphatidylserine lipase ABHD12 (Homo sapiens, UniProt Q8N2K0).
T4 sequence (Q8N2K0 whole entry): T3 sequence (Q8N2K0 whole entry)
The data set is described as follows: Inhibition of azido-fluorophosphonate probe binding to human ABHD12 expressed in HEK293T cells at 20 to 100 uM incubated for 1 hr followed by azido-fluorophosphonate addition and measured after 1 hr by fluorescent Western blotting analysis. Type of data set: toxicity, cell-based. Conditions: 2 h, dose 20-100 µM.

The term inhibition denotes how much of the control response was suppressed. The low end stands for a weak effect, the high end for a strong effect. Take `COC(=O)[C@]1(C)CCC[C@]2(C)c3cc(-c4csc([C@H](C)O)n4)c(C(C)C)cc3CC[C@@H]12`: the inhibition is 66.4% in data set [1], 48% in data set [2] and 35.7% in data set [3]. Besides, the inhibition at 2 h, 100 µM in data set [4] came out at 60.9%. The inhibition at 2 h, 20 µM in data set [5] was determined as 54%.

As for `CC(C)c1cc2c(cc1-c1csc([C@H](C)O)n1)[C@@]1(C)CCC[C@@](C)(C(N)=O)[C@@H]1CC2`, the inhibition in data set [1] turned out to be 59.8%; in data set [2] it was 37.6%.

Turning to `COC(=O)[C@]1(C)CCC[C@]2(C)c3cc(-c4csc(COC(C)=O)n4)c(C(C)C)cc3CC[C@@H]12`, the inhibition in data set [1] is 62.9%; in data set [2], 48.4%.

With `CC(=O)c1nc(-c2cc3c(cc2C(C)C)CC[C@H]2[C@](C)(C(N)=O)CCC[C@]32C)cs1`, the inhibition in data set [1] is 83.5%; in data set [6] it was 55.5%; in data set [2], 45.5%; in data set [3], 33.5%.

On to `CC(C)c1cc2c(cc1-c1csc([C@H](C)O)n1)[C@@]1(C)CCCC(C)(C)[C@@H]1CC2`, for which the inhibition in data set [7] turned out to be 34.1%. Also, the “inhibition (INH)” value in data set [8] is given as “Not Active”.

With `COC(=O)[C@]1(C)CCC[C@]2(C)c3cc(-c4csc(C)n4)c(C(C)C)cc3C(=O)C[C@@H]12`, the inhibition in data set [1] was 73.2%; in data set [2] it was 55.1%; in data set [3], 32.2%.
